Source: patent publication US9604987B2, “Synthesis of autophagy inducing compound and the uses thereof” (Hong Kong Baptist University, priority 2012, dated 2017)
Read-outs that look alike come from different tables or passages of the source.

Experiments:
[1] = Pharmacokinetic study of Cory B, CB6 and CB8 in rats (plasma, LC/MS/MS, NCA); set-up: species or system Male Sprague-Dawley (SD) rats; conditions: rat, in vivo, 1 mg/kg; for AUC / Cmax / MRT / half-life: male, Sprague-Dawley
Procedure: Male Sprague-Dawley (SD) rats (weighting ˜200 g) used in the experiment are provided by Laboratory Animal Services Center of The Chinese University of Hong Kong (Hong Kong SAR, People's Republic of China). Cory B (n=3), CB6 (n=6) and CB8 (n=6). For the jugular vein cannulation surgery, the rats are anesthetized (intramuscular injection of a mixture of 80 mg/kg ketamine and 8 mg/kg xylazine) followed by inserting a polyethylene tube (0.5 mm ID, 1 mm OD, Portex Ltd., England) into the right jugular vein. The cannulated rats are allowed to recover overnight while fasting with free access to water. For intravenous (IV) administrations, Cory B, CB6 or CB8 (200 μg/mL, dissolved in saline containing 9.2% PEG400+0.5% DMSO, w/w) is given through the jugular vein catheter at 1 mg/kg. For intranasal (IN) administration, 10 μL of Cory B, CB6 or CB8 (10 mg/mL, dissolved with 40% PEG400, 10% DMSO in H2O, w/w) is given to each nostril of rats. At pre-determined time points post-dosing (5, 10, 20, 30, 60, 120, 240 and 360 min for IV and IN administration groups), approximately 200 μL blood is collected into a heparinized centrifuge tube containing 5 μM EDTA followed by centrifugation at 3000 rpm for 5 min to obtain the plasma. To 100 μL rat plasma sample, an aliquot of 100 μL internal standard (IS) and 100 μL of acetonitrile are added. The mixture is mixed for 1 min by vortex and then centrifuged for 10 min at 13,200 rpm. 200 μL of supernatant is transferred into centrifuge tubes and mixed with 200 μL of H2O containing 4% formic acid (FA). After another round of vortex and centrifugation, 10 μL of the supernatant is subjected to LC/MS/MS for quantification of Cory B, CB6 or CB8 with an established LC/MS/MS method. Pharmacokinetic parameters from non-compartmental analysis (NCA) are calculated using WinNonLin. The pharmacokinetic parameters and profiles of each analytes are shown as below.

N2a cells = assay: Western blot of autophagy marker LC3-II in N2a cells; format: cell-based, mouse; conditions: for pro-autophagic activity (LC3II protein signal): various concentrations, 12 hrs
Procedure: Native and denatured PAGE and Western blotting analysis. Samples to be run under denaturing conditions were lysed with RIPA lysis buffer (150 mM NaCl, 50 mM Tris-HCl, 0.35% sodium deoxycholate, 1 mM EDTA, 1% NP40, 1 mM PMSF, 5 μg/ml aprotinin, 5 μg/ml leupeptin). Samples for native gels were lysed with detergent-free lysis buffer (50 mM Tris/HCl pH 7.4, 175 mM NaCl, 5 mM EDTA pH 8.0, 1 mM PMSF, 5 μg/ml aprotinin, 5 μg/ml leupeptin), and sheared 5 times through a 28-gauge needle followed by 2 times of sonication for 5 seconds according to previously described protocol. For denaturing, SDS-PAGE was performed using Tris-Glycine SDS running buffer and SDS sample buffer, and for native conditions, native-PAGE was run with detergent-free Tris-Glycine running buffer (BN2007, Invitrogen) and 4× native sample buffer (BN2003, Invitrogen) on a pre-casted native PAGE gel (BN1002BOX, Invitrogen). The proteins on the gels were then transferred to PVDF membrane (RPN303F, GE Healthcare) and processed for immunoblotting. Membranes were blocked with 5% non-fat milk and probed with the appropriate primary and secondary antibodies. The desired bands were visualized using the ECL kit (32106, Pierce). The band density was quantified using the ImageJ program and normalized to that of the control group.
In order to confirm the neuronal autophagy inducing activity of Cory B (its chemical structure is shown in FIG. 1A), mouse neuroblastoma N2a, rat phenochromocytoma PC12 and human neurobastoma SH-SY5Y are treated with different concentrations of Cory B for 24 hours and cell lysates are subjected to western blotting analysis of LC3-II expression which is an autophagy-specific marker.
To confirm that enhancement of autophagy markers by Cory B is due to induction of autophagy rather than blockage of autophagosome maturation, N2a cells are treated with 25 μM Cory B or 30 μM lysosome inhibitor CQ together with Cory B for 12 hours. Cell lysates are subject to western blot analysis. Data are presented as the mean±SEM from 3 independent experiments (***p<0.001, one-way ANOVA for multiple comparison and Tukey's test as post hoc test). Both LC3-II levels and the number of GFP-LC3 puncta in the Cory B and CQ co-treatment group are much higher than in the CQ-alone treatment group (FIG. 2A-D). Meanwhile, Cory B induces GFP-LC3 puncta formation is abolished by treatment of 5 mM autophagy inhibitor 3-MA for 24 hours (FIG. 2C, D). Cells were fixed in 4% paraformaldehyde and analyzed under a confocal microscope. Data are presented as the mean±SEM of one representative experiment from three independent experiments. (***p<0.001, one-way ANOVA for multiple comparison and Tukey's test as post hoc test). […] Thus, Cory B is indeed an autophagy inducer in neuronal cells.
To compare the activities of oxindole alkaloids on autophagy induction, LC3II expression levels in N2a cells after treatment with Corynoxine B (Cory B) (FIG. 8A), Corynoxine (Cory) (FIG. 8B), Rhynchophylline (Rhy) (FIG. 8C) and Isorhynchophylline (IsoRhy) for 12 hours are examined.
In order to examine the pro-autophagic activities of the synthesized Cory B analogues, neuroblastoma 2a, a neuronal cell line, are treated with various concentrations of the analogues for 12 hrs. The cells are then harvested and lysed with RIPA buffer (150 mM NaCl, 50 mM Tris-HCl pH 7.4, 0.35% sodium deoxycholate, 1 mM EDTA, 1% NP40, 1 mM PMSF, 5 μg/ml aprotinin, 5 μg/ml leupeptin). The sample are lysed on ice with occasional vortex for 30 min, and then centrifuged at 14,000 rpm for 15 min at 4° C. The supernatant are collected and denatured at 95° C. in sample buffer for 5 min. The denatured samples are then separated on 15% SDS-PAGE gels and transferred to PVDF membrane. Membranes are then blocked with 5% non-fat milk and probed with appropriate primary and secondary antibodies. The protein signals of LC3II, marker protein of autophagy, are finally visualized with ECL kit and the protein bands density are quantified by ImageJ program. […]

CC[C@@H]1CN2CC[C@]3(C(=O)Nc4ccccc43)C2C[C@@H]1C(=COC)C(=O)OC (stereo partly drawn) [Cory B, Corynoxine B] gave an AUC ([1]; inhaled or intranasal, rats, intranasal, read-out: AUC (area under the curve) (converted)) of 92.6 ng·h/mL, a Cmax ([1]; inhaled or intranasal, rats, intranasal, read-out: Cmax (maximum plasma concentration)) of 145 ± 62 ng/mL and an MRT ([1]; inhaled or intranasal, rats, intranasal, read-out: MRT (mean residence time) (converted)) of 2.22 h. The half-life ([1]; inhaled or intranasal, rats, intranasal, read-out: t1/2 (plasma half-life)) was 1.93 ± 0.233 h, the AUC ([1]; rats, intravenous, read-out: AUC (area under the curve) (converted)) was 63.6 ng·h/mL and the Cmax ([1]; rats, intravenous, read-out: Cmax (maximum plasma concentration)) was 66 ± 8 ng/mL. For the same compound, the MRT ([1]; rats, intravenous, read-out: MRT (mean residence time) (converted)) was 2.3 h, the half-life ([1]; rats, intravenous, read-out: t1/2 (plasma half-life)) was 2.13 ± 0.367 h and the “LC3-II levels and number of GFP-LC3 puncta, co-treatment with CQ versus CQ alone” value (N2a cells; 25 μM Cory B + 30 μM CQ, 12 hours) was “much higher”. The LC3-II levels (N2a cells; N2a, 0-25 μM, 24 hours) was “increases levels of LC3-II” and the “autophagy induction (LC3II expression level)” value (N2a cells; N2a, oxindole alkaloids, 12 hours) was “significantly activate autophagy”.

CCCN1C(=O)[C@]2(CCN3C[C@@H](CC)[C@@H](/C(=C\OC)C(=O)OC)C[C@H]32)c2ccccc21 [CB6] gave an AUC ([1]; inhaled or intranasal) of 200 ng·h/mL, a Cmax ([1]; inhaled or intranasal) of 244 ± 33 ng/mL and an MRT ([1]; inhaled or intranasal) of 1.83 h. The half-life ([1]; inhaled or intranasal) was 1.93 ± 0.133 h, the AUC ([1]; iv) was 248 ng·h/mL and the Cmax ([1]; iv) was 520 ± 177 ng/mL. For the same compound, the MRT ([1]; iv) was 1.58 h, the half-life ([1]; iv) was 2 ± 0.25 h and the “Tmax (time to reach Cmax)” value ([1]; inhaled or intranasal) was 5 ± 0 min. For the same compound, the “Cmax and Area Under Curve (AUC) in comparison Cory B” value ([1]; iv) was “greater” and the “pro-autophagic activity (LC3II protein signal)” value (N2a cells; N2a) was “novel autophagy inducer”.

Work on C=CCN1C(=O)[C@]2(CCN3C[C@@H](CC)[C@@H](/C(=C\OC)C(=O)OC)C[C@H]32)c2ccccc21 [CB8] yielded an AUC ([1]; inhaled or intranasal) of 124 ng·h/mL, a Cmax ([1]; inhaled or intranasal) of 129 ± 61 ng/mL and an MRT ([1]; inhaled or intranasal) of 1.95 h. The half-life ([1]; inhaled or intranasal) was 1.65 ± 0.217 h, the AUC ([1]; iv) was 102 ng·h/mL and the Cmax ([1]; iv) was 143 ± 42 ng/mL. The MRT ([1]; iv) was 1.65 h, the half-life ([1]; iv) was 1.87 ± 0.433 h and the “Tmax (time to reach Cmax)” value ([1]; inhaled or intranasal) was 5 ± 0 min. The “Cmax and Area Under Curve (AUC) in comparison Cory B” value ([1]; iv) was “greater” and the “pro-autophagic activity (LC3II protein signal)” value (N2a cells; N2a) was “novel autophagy inducer”.
